Test results taken from ChEMBL document CHEMBL1201862, “PubChem BioAssay data set” (2004).
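A five-concentration, 48-hour dose response in 96-well plates underlies each endpoint, interpolated linearly between surrounding concentrations. GI50: concentration for 50% inhibition of growth.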 Activity calls are given as the source filed them. No stated cut-off is given here; in the data, active = GI50 up to about 1.1 µM and inactive = higher.

How the values were obtained:
Test in all cases: NCI tumour cell line growth inhibition, 48 h
NCI-H460 = system: NCI-H460
SNB-78 = system: SNB-78
IGROV-1 = system: IGROV-1
M14 = system: M14
HCC 2998 = system: HCC 2998
OVCAR-3 = system: OVCAR-3
OVCAR-8 = system: OVCAR-8
UACC-257 = system: UACC-257
DMS-273 = system: DMS-273
SR = system: SR
SF-268 = system: SF-268
XF498 = system: XF498
UO-31 = system: UO-31
KM12 = system: KM12
DLD-1 = system: DLD-1
EKVX = system: EKVX
U-251 = system: U-251
COLO 205 = system: COLO 205
SN12C = system: SN12C
KM-20L2 = system: KM-20L2
HL-60 = system: HL-60
CAKI-1 = system: CAKI-1
RPMI-8226 = system: RPMI-8226
ACHN = system: ACHN
SNB-75 = system: SNB-75
A498 = system: A498
HCT-15 = system: HCT-15
SK-OV-3 = system: SK-OV-3
786-0 = system: 786-0
LOX IMVI = system: LOX IMVI
Malme-3M = system: Malme-3M
OVCAR-5 = system: OVCAR-5
SNB-19 = system: SNB-19
A549 = system: A549
TK-10 = system: TK-10
RXF 393 = system: RXF 393
SK-MEL-2 = system: SK-MEL-2
HCT-116 = system: HCT-116
SW-620 = system: SW-620
CCRF-CEM = system: CCRF-CEM
NCI-H226 = system: NCI-H226
MOLT-4 = system: MOLT-4
DMS-114 = system: DMS-114
NCI-H522 = system: NCI-H522
LXFL 529 = system: LXFL 529
HOP-18 = system: HOP-18
K562 = system: K562
SF-539 = system: SF-539
SF-295 = system: SF-295
SK-MEL-5 = system: SK-MEL-5
UACC-62 = system: UACC-62
OVCAR-4 = system: OVCAR-4
HT-29 = system: HT-29
HOP-62 = system: HOP-62
M19-MEL = system: M19-MEL
SK-MEL-28 = system: SK-MEL-28

Question: `CCN(CC)CC(C(C)=O)C(c1ccccc1)c1c(O)c2ccccc2oc1=O` (stereo unspecified) was tested. Which GI50 (NCI-H460) did it give?
Answer: The GI50 was > 100 µM (inactive).

Question: And the GI50 (SNB-78)?
Answer: The GI50 was > 100 µM (inactive).

Question: What about the GI50 (IGROV-1) of the same molecule?
Answer: Its GI50 is > 100 µM (inactive).

Question: And the GI50 (M14)?
Answer: The GI50 was > 100 µM (inactive).

Question: What about the GI50 (HCC 2998) of the same molecule?
Answer: Its GI50 is > 100 µM (inactive).

Question: What about the GI50 (OVCAR-3) of the same molecule?
Answer: The GI50 was > 100 µM (inactive).

Question: And the GI50 (OVCAR-8)?
Answer: Its GI50 is > 100 µM (inactive).

Question: And the GI50 (UACC-257)?
Answer: The GI50 was 63.1 µM (inactive).

Question: And the GI50 (DMS-273)?
Answer: The GI50 was > 100 µM (inactive).

Question: And the GI50 (SR)?
Answer: Its GI50 is > 100 µM (inactive).

Question: And the GI50 (SF-268)?
Answer: Its GI50 is > 100 µM (inactive).

Question: What about the GI50 (XF498) of the same molecule?
Answer: The GI50 was > 100 µM (inactive).

Question: What about the GI50 (UO-31) of the same molecule?
Answer: The GI50 was > 100 µM (inactive).

Question: And the GI50 (KM12)?
Answer: Its GI50 is > 100 µM (inactive).

Question: And the GI50 (DLD-1)?
Answer: Its GI50 is > 100 µM (inactive).

Question: And the GI50 (EKVX)?
Answer: Its GI50 is > 100 µM (inactive).

Question: And the GI50 (U-251)?
Answer: The GI50 was > 100 µM (inactive).

Question: What about the GI50 (COLO 205) of the same molecule?
Answer: Its GI50 is > 100 µM (inactive).

Question: What about the GI50 (SN12C) of the same molecule?
Answer: Its GI50 is > 100 µM (inactive).

Question: And the GI50 (KM-20L2)?
Answer: The GI50 was > 100 µM (inactive).

Question: What about the GI50 (HL-60) of the same molecule?
Answer: Its GI50 is > 100 µM (inactive).

Question: What about the GI50 (CAKI-1) of the same molecule?
Answer: Its GI50 is > 100 µM (inactive).

Question: And the GI50 (RPMI-8226)?
Answer: Its GI50 is > 100 µM (inactive).

Question: And the GI50 (ACHN)?
Answer: Its GI50 is > 100 µM (inactive).

Question: And the GI50 (SNB-75)?
Answer: The GI50 was 42.4 µM (inactive).

Question: What about the GI50 (A498) of the same molecule?
Answer: The GI50 was > 100 µM (inactive).

Question: What about the GI50 (HCT-15) of the same molecule?
Answer: Its GI50 is > 100 µM.

Question: What about the GI50 (SK-OV-3) of the same molecule?
Answer: Its GI50 is > 100 µM (inactive).

Question: And the GI50 (786-0)?
Answer: Its GI50 is > 100 µM (inactive).

Question: And the GI50 (LOX IMVI)?
Answer: Its GI50 is > 100 µM (inactive).

Question: And the GI50 (Malme-3M)?
Answer: Its GI50 is > 100 µM (inactive).

Question: What about the GI50 (OVCAR-5) of the same molecule?
Answer: Its GI50 is > 100 µM (inactive).

Question: And the GI50 (SNB-19)?
Answer: Its GI50 is > 100 µM (inactive).

Question: And the GI50 (A549)?
Answer: Its GI50 is > 100 µM (inactive).

Question: What about the GI50 (TK-10) of the same molecule?
Answer: Its GI50 is > 100 µM (inactive).

Question: What about the GI50 (RXF 393) of the same molecule?
Answer: The GI50 was > 100 µM (inactive).

Question: And the GI50 (SK-MEL-2)?
Answer: Its GI50 is > 100 µM (inactive).

Question: And the GI50 (HCT-116)?
Answer: The GI50 was > 100 µM (inactive).

Question: And the GI50 (SW-620)?
Answer: Its GI50 is > 100 µM (inactive).

Question: And the GI50 (CCRF-CEM)?
Answer: Its GI50 is > 100 µM (inactive).

Question: And the GI50 (NCI-H226)?
Answer: The GI50 was > 100 µM (inactive).

Question: What about the GI50 (MOLT-4) of the same molecule?
Answer: The GI50 was > 100 µM (inactive).

Question: And the GI50 (DMS-114)?
Answer: The GI50 was > 100 µM (inactive).

Question: What about the GI50 (NCI-H522) of the same molecule?
Answer: The GI50 was > 100 µM (inactive).

Question: And the GI50 (LXFL 529)?
Answer: The GI50 was > 100 µM (inactive).

Question: And the GI50 (HOP-18)?
Answer: The GI50 was > 100 µM (inactive).

Question: What about the GI50 (K562) of the same molecule?
Answer: The GI50 was > 100 µM (inactive).

Question: What about the GI50 (SF-539) of the same molecule?
Answer: Its GI50 is > 100 µM (inactive).

Question: What about the GI50 (SF-295) of the same molecule?
Answer: The GI50 was > 100 µM (inactive).

Question: What about the GI50 (SK-MEL-5) of the same molecule?
Answer: The GI50 was > 100 µM (inactive).

Question: And the GI50 (UACC-62)?
Answer: Its GI50 is > 100 µM (inactive).

Question: And the GI50 (OVCAR-4)?
Answer: The GI50 was > 100 µM (inactive).

Question: What about the GI50 (HT-29) of the same molecule?
Answer: The GI50 was > 100 µM (inactive).

Question: What about the GI50 (HOP-62) of the same molecule?
Answer: The GI50 was > 100 µM (inactive).

Question: What about the GI50 (M19-MEL) of the same molecule?
Answer: The GI50 was > 100 µM (inactive).

Question: And the GI50 (SK-MEL-28)?
Answer: Its GI50 is > 100 µM (inactive).
